Values after ≈ are worked out from the molar mass of the structure shown.
Key:
K2P10.1(TREK-2) = molecular target: T1, K2P10.1(TREK-2) (Mus musculus, UniProt Q8BUW1); assay: TEVC of K2P10.1(TREK-2) in Xenopus oocytes; format: cell-based
T1 construct: expressed in transfected cells; host or cells: Xenopus laevis oocytes injected with mRNA made from pGEMHE/pMO
From the text: (§1) Constructs for murine K2P channels, including K2P2.1(TREK-1) (Gene ID 16526), K2P10.1(TREK-2) (Gene ID 72258), K2P4.1(TRAAK) (Gene ID 16528), K2P5.1(TASK-2) (Gene ID 16529), K2P3.1(TASK-1) (Gene ID 16527), K2P9.1(TASK-3) (Gene ID 223604), and K2P18.1(TRESK) (Gene ID 332396) in pGEMHE/pMO, were used for Xenopus oocyte experiments as previously described.[10],[26] Murine K2P2.1(TREK-1) (Gene ID 16526) was expressed in HEK-293 cells using a pIRES-EGFP construct as previously described.[26] Murine K2P13.1(THIK-1) (Gene ID 217826) and K2P1.1(TWIK-1) (Gene ID 16525) were cloned into pGEMHE/pMO for use in Xenopus oocytes. […]
(§2) Xenopus laevis oocytes were harvested in accordance with UCSF IACUC protocol AN129690 and digested in calcium-free ND-96 (96 mM NaCl, 2 mM KCl, 3.8 mM MgCl2) immediately following harvest, as previously described.[6],[10] […] Defolliculated stage V–VI oocytes were injected with 0.2–6.0 ng of mRNA in 50 nL, and currents were recorded 24–48 h after injection. mRNA was synthesized from plasmid DNA using mMessage mMachine Kit (T7 promoter, Ambion, Life Technologies) and purified using RNEasy Kit (Qiagen). […] Once stabilized basal currents were recorded, compounds were perfused at various concentrations in standard ND96 and currents were allowed to increase to stabilization before recording final current. […]

K2P2.1(TREK-1)GGG = molecular target: T2, K2P2.1(TREK-1)GGG (Mus musculus, UniProt P97438, D309G/I307G); assay: TEVC of triple-glycine mutant uncoupling the C-terminal tail; format: cell-based; conditions: Xenopus oocytes
T2 construct: expressed in transfected cells; host or cells: Xenopus laevis oocytes, mRNA injected
T2 sequence (P97438 1-411 isoform P97438-2 I292G/D294G): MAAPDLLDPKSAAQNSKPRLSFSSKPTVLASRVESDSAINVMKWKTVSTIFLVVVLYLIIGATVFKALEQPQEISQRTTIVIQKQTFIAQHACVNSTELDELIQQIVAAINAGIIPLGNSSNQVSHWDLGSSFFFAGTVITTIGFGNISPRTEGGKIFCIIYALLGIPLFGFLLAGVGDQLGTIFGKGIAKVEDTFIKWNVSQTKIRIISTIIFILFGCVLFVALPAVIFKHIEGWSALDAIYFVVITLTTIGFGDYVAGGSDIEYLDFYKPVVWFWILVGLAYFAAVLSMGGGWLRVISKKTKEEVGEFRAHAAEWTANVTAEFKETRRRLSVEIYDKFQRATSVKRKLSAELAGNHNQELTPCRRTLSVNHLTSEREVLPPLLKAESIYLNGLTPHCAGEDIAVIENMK
From the text: Gating stimuli detected by sensors in various parts of the channel converge on the K2P selectivity filter C-type gate.[6],[8],[10],[12],[35] Because the C-terminal tail is the sensor for K2P2.1(TREK-1) activation by both physiological[41]−[46] and chemical[45],[47] activators, we asked whether uncoupling the C-terminal tail from the channel using a triple-glycine mutant at the M4/C-terminal tail junction, K2P2.1(TREK-1)GGG,[41] impacted the BL-1249 response. […]
as §2, with “current. Fold activation upon compound application is expressed as I/I0 (0 mV), derived from the current at 0 mV in the presence of compound divided by the basal current at 0 mV in standard ND96 without compound.” for “current.”

K2P2.1(TREK-1)Δ322 = molecular target: T3, K2P2.1(TREK-1)Δ322 (Mus musculus, UniProt P97438); assay: TEVC of C-terminal truncation at residue 322; format: cell-based; conditions: Xenopus oocytes, saturation not reached, fit with upper boundary of 15 (I/I0)
T3 construct: truncations at residue 322, K2P2.1(TREK-1)Δ322, equivalent to a previously described mutant called Δ89; expressed in transfected cells; host or cells: Xenopus laevis oocytes, mRNA injected
T3 sequence (P97438 1-322 isoform P97438-2): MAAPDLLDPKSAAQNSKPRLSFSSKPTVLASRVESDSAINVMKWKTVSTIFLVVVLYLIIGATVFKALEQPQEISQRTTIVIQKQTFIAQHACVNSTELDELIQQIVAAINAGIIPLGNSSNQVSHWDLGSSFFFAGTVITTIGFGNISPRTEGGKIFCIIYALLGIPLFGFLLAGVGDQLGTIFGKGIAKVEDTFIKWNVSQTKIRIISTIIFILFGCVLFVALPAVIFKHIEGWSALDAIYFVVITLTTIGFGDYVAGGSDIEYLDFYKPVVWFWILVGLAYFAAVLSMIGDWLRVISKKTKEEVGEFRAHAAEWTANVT
From the text: as §1, §2

TRAAK/EK-1_T = TRAAK/EK-1_T (Mus musculus, UniProt O88454); assay: TEVC of C-terminal tail swap chimera TRAAK/EK-1_T; format: cell-based; conditions: Xenopus oocytes
Chain of TRAAK/EK-1_T (O88454 1-255 limits assumed): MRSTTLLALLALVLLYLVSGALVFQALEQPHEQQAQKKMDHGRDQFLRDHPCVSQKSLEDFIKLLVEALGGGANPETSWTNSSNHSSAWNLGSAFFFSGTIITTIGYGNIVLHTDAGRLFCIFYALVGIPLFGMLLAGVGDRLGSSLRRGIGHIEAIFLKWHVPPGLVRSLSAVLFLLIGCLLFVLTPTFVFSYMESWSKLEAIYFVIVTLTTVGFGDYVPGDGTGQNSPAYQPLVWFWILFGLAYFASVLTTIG
From the text: Given the importance of the C-terminal tail for the BL-1249 response and the fact that the C-terminal tails of K2P2.1(TREK-1) and K2P4.1(TRAAK) vary substantially (17.6% sequence similarity, 13.5% identity), we wondered if these differences could contribute to the different potencies observed in K2P2.1(TREK-1) and K2P4.1(TRAAK) BL-1249 responses. To test this possibility, we made chimeras that swapped the C-terminal tail between K2P2.1(TREK-1) and K2P4.1(TRAAK), TREK-1/AAK_T and TRAAK/EK_T. […] Despite this modest change, it is clear that the C-terminal tail alone is not sufficient to endow the K2P4.1(TRAAK) core with a K2P2.1(TREK-1)-like BL-1249 response. […]
as §2

K2P3.1(TASK-1) = molecular target: T4, K2P3.1(TASK-1) (Mus musculus, UniProt O35111); assay: TEVC of K2P3.1(TASK-1) in Xenopus oocytes; format: cell-based; conditions: concentrations up to the solubility limit (∼80 μM)
T4 construct: expressed in transfected cells; host or cells: Xenopus laevis oocytes injected with mRNA made from pGEMHE/pMO
T4 sequence (O35111 whole entry): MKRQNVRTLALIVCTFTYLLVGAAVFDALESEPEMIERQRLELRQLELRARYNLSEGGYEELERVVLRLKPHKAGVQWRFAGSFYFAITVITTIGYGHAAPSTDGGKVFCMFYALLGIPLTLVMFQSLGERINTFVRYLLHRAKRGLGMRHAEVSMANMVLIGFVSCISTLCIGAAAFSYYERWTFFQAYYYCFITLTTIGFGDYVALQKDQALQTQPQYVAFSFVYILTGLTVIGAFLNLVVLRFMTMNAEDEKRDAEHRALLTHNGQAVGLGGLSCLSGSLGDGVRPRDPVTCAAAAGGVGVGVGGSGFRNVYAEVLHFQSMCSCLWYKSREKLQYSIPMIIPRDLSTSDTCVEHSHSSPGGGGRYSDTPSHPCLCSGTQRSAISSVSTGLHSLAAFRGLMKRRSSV
Protocol: BL-1249 activates K2P2.1(TREK-1)[18],[40] and K2P10.1(TREK-2),[7] but its effects on other K2P channels have not been characterized. […] In order to test if the original 10 μM assay had missed BL-1249 effects in other K2P channels, we tested concentrations of BL-1249 up to the solubility limit (∼80 μM) against the other K2P subfamily representatives. […]
as §2, with “current. Fold activation upon compound application is expressed as I/I0 (0 mV), derived from the current at 0 mV in the presence of compound divided by the basal current at 0 mV in standard ND96 without compound. Data were analyzed and plotted using Graphpad Prism Version 5 (GraphPad Software, San Diego California USA, www.graphpad.com).” for “current.”

[1] = BL-1249 solubility limit in recording solution; format: physicochemical; conditions: standard ND96 recording solution
Protocol: BL-1249 activates K2P2.1(TREK-1)[18],[40] and K2P10.1(TREK-2),[7] but its effects on other K2P channels have not been characterized. […] In order to test if the original 10 μM assay had missed BL-1249 effects in other K2P channels, we tested concentrations of BL-1249 up to the solubility limit (∼80 μM) against the other K2P subfamily representatives.

T1 sequence (Q8BUW1 whole entry): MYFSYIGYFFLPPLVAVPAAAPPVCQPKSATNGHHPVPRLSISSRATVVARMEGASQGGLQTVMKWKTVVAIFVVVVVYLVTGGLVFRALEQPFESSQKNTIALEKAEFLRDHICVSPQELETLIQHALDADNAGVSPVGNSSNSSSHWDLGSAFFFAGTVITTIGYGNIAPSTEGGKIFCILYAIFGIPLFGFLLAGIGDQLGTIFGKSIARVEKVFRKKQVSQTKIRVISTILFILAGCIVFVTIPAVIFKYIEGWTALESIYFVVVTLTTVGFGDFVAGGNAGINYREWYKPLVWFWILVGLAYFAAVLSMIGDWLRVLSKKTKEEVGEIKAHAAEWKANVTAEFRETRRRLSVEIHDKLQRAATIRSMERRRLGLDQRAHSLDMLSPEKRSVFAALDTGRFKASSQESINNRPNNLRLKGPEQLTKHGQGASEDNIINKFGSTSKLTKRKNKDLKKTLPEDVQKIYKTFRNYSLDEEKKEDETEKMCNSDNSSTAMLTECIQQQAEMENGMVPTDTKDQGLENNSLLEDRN

## c1ccc(-c2nnn[nH]2)c(Nc2cccc3c2CCCC3)c1 [BL-1249, (5,6,7,8-tetrahydro-naphthalen-1-yl)-[2-(1H-tetrazol-5-yl)-phenyl]-amine]
K2P10.1(TREK-2); I/I0 at 0 mV
  EC50: 8 ± 0.8 µM
K2P10.1(TREK-2); extracellular application of 10 μM
  K2P10.1(TREK-2) current response: clear activation responses
K2P2.1(TREK-1)GGG
  EC50: 19 ± 1 µM
K2P2.1(TREK-1)Δ322
  EC50: 26 ± 8 µM
TRAAK/EK-1_T
  EC50: 23 ± 4 µM
  increase in sensitivity of TRAAK/EK-1_T relative to K2P4.1(TRAAK): ~2 fold
K2P3.1(TASK-1)
  activation of K2P3.1(TASK-1): failed to find evidence for activation
[1]
  solubility: ~80 µM (≈ 23.3 µg/mL)

Reference: PMC6302903, “Protein and Chemical Determinants of BL-1249 Action and Selectivity for K2P Channels” (ACS Chemical Neuroscience, 2018)
